Test results taken from the supplement of paper PMC11061612.

Legend:
Assay in all cases: Bliss excess, mean over the matrix (fraction); higher = more synergy
UACC-257 (Melanoma) = system: UACC-257 (Melanoma)
Procedure, shortened: (§1)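 Cell lines grown in DMEM/F12 or RPMI with 10% FBS were plated in 1536-well plates and held 24 hours at 37°C, 5% CO2 before 72 hours of exposure to two-drug dose matrices, with DMSO typically at 0.2%. CellTiter-Glo 2.0 luminescence gave viability, which was converted to inhibition. Vehicle wells were set to 0 and blank wells to 1. Combination Emax is the second-highest inhibition in the matrix, and Bliss excess is the observed combination effect minus the expected EA + EB − EA·EB, where EA and EB are the single-agent effects.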

ES6 (Ewing's Sarcoma) = system: ES6 (Ewing's Sarcoma)
Procedure, shortened: as §1

[1] = system: LCLC-103H (Non-Small Cell Lung Carcinoma)
Procedure, shortened: as §1

[2] = system: SNU-C2B (Colorectal Carcinoma)
Procedure, shortened: as §1

[3] = system: SKG-IIIa (Cervical Carcinoma)
Procedure, shortened: as §1

AM-38 (Glioblastoma) = system: AM-38 (Glioblastoma)
Procedure, shortened: as §1

[4] = system: MS-1 (Small Cell Lung Carcinoma)
Procedure, shortened: as §1

T47D (Breast Carcinoma) = system: T47D (Breast Carcinoma)
Procedure, shortened: as §1

[5] = system: CPC-N (Small Cell Lung Carcinoma)
Procedure, shortened: as §1

NB1 (Neuroblastoma) = system: NB1 (Neuroblastoma)
Procedure, shortened: as §1

[6] = system: MOLT-13 (T-Lymphoblastic Leukemia)
Procedure, shortened: as §1

[7] = system: SUP-M2 (T-Cell Non-Hodgkin's Lymphoma)
Procedure, shortened: as §1

IST-MEL1 (Melanoma) = system: IST-MEL1 (Melanoma)
Procedure, shortened: as §1

[8] = system: NCI-H596 (Other Solid Carcinomas)
Procedure, shortened: as §1

SK-N-SH (Neuroblastoma) = system: SK-N-SH (Neuroblastoma)
Procedure, shortened: as §1

[9] = system: TUR (Acute Myeloid Leukemia)
Procedure, shortened: as §1

[10] = system: CL-11 (Colorectal Carcinoma)
Procedure, shortened: as §1

NCI-H226 (Mesothelioma) = system: NCI-H226 (Mesothelioma)
Procedure, shortened: as §1

NCI-H2373 (Mesothelioma) = system: NCI-H2373 (Mesothelioma)
Procedure, shortened: as §1

[11] = system: Raji (Burkitt's Lymphoma)
Procedure, shortened: as §1

SMILES | Bliss excess (UACC-257 (Melanoma)) | Bliss excess (ES6 (Ewing's Sarcoma)) | Bliss excess [1] | Bliss excess [2] | Bliss excess [3] | Bliss excess (AM-38 (Glioblastoma)) | Bliss excess [4] | Bliss excess (T47D (Breast Carcinoma)) | Bliss excess [5] | Bliss excess (NB1 (Neuroblastoma)) | Bliss excess [6] | Bliss excess [7] | Bliss excess (IST-MEL1 (Melanoma)) | Bliss excess [8] | Bliss excess (SK-N-SH (Neuroblastoma)) | Bliss excess [9] | Bliss excess [10] | Bliss excess (NCI-H226 (Mesothelioma)) | Bliss excess (NCI-H2373 (Mesothelioma)) | Bliss excess [11]
C=CCn1c(=O)c2cnc(Nc3ccc(N4CCN(C)CC4)cc3)nc2n1-c1cccc(C(C)(C)O)n1 [AZD1775] + C[C@@H]1COCCN1C2=NC(=NC(=C2)C3(CC3)[S@](=N)(=O)C)C4=C5C=CNC5=NC=C4 [AZD6738] (first compound max 1 µM, partner max 10 µM) | 0.0398 | 0.0509 | 0.0108 | -0.0212 | -0.0378 | 0.0618 | 0.0322 | -0.0302 | 0.0072 | -0.0161 | 0.0735 | -0.0015 | 0.021 | 0.0323 | -0.0285 | 0.0657 | -0.0047 | -0.0327 | 0.025 | 0.109
C=CCn1c(=O)c2cnc(Nc3ccc(N4CCN(C)CC4)cc3)nc2n1-c1cccc(C(C)(C)O)n1 [AZD1775] + O=C(c1cc(Cc2n[nH]c(=O)c3ccccc23)ccc1F)N1CCN(C(=O)C2CC2)CC1 [Olaparib] (first compound max 1 µM, partner max 10 µM) | -0.0197 | 0.0465 | -0.0334 | 0.0056 | -0.0648 | -0.0018 | -0.0094 | -0.0095 | 0.0183 | -0.0795 | 0.021 | 0.0276 | -0.0596 | -0.0963 | -0.0947 | 0.0029 | -0.0099 | -0.035 | -0.013 | -0.016
CCN(CCO)CCCOc1ccc2c(Nc3cc(CC(=O)Nc4cccc(F)c4)[nH]n3)ncnc2c1 [AZD2811] + C=CCn1c(=O)c2cnc(Nc3ccc(N4CCN(C)CC4)cc3)nc2n1-c1cccc(C(C)(C)O)n1 [AZD1775] (first compound max 1 µM, partner max 1 µM) | -0.032 | -0.0792 | 0.0066 | -0.0602 | -0.0142 | 0.0107 | -0.0205 | -0.0236 | -0.0239 | -0.0433 | 0.0166 | -0.036 | 0.0196 | 0.0114 | -0.0544 | 0.117 | 0.0034 | -0.0708 | -0.0482 | 0.0278
CCN(CCO)CCCOc1ccc2c(Nc3cc(CC(=O)Nc4cccc(F)c4)[nH]n3)ncnc2c1 [AZD2811] + C[C@@H]1COCCN1C2=NC(=NC(=C2)C3(CC3)[S@](=N)(=O)C)C4=C5C=CNC5=NC=C4 [AZD6738] (first compound max 1 µM, 7x7, partner max 10 µM) | -0.0649 | -0.0479 | -0.119 | -0.0581 | -0.0409 | -0.0202 | -0.0585 | -0.0493 | -0.0794 | -0.0802 | -0.0075 | -0.0545 | -0.0456 | -0.0056 | -0.0358 | 0.019 | -0.0488 | -0.069 | -0.0139 | -0.0562
CCN(CCO)CCCOc1ccc2c(Nc3cc(CC(=O)Nc4cccc(F)c4)[nH]n3)ncnc2c1 [AZD2811] + O=C(c1cc(Cc2n[nH]c(=O)c3ccccc23)ccc1F)N1CCN(C(=O)C2CC2)CC1 [Olaparib] (first compound max 1 µM, 7x7, partner max 10 µM) | -0.0322 | -0.0457 | -0.0275 | -0.014 | -0.0286 | 0.0471 | 0.0107 | 0.005 | -0.0238 | -0.0581 | -0.0146 | -0.0429 | 0.0192 | -0.0372 | -0.0701 | 0.0637 | 0.0084 | -0.0448 | 0.0244 | 0.0005
CN(CCO)CC[C@H](CSc1ccccc1)Nc1ccc(S(=O)(=O)NC(=O)c2ccc(N3CCC([C@@H](O)c4ccccc4-c4ccc(Cl)cc4)CC3)cc2)cc1S(=O)(=O)C(F)(F)F [AZD4320] + C1CN(CCC1(C(=O)N[C@@H](CCO)C2=CC=C(C=C2)Cl)N)C3=NC=NC4=C3C=CN4 [Capivasertib] (first compound max 1 µM, 7x7, partner max 3 µM) | -0.0405 | -0.0522 | -0.0548 | -0.0305 | -0.0318 | -0.0484 | -0.0037 | -0.0554 | -0.0158 | -0.0031 | -0.0371 | -0.0192 | -0.0226 | -0.0509 | -0.0363 | -0.0062 | -0.0496 | -0.0589 | -0.0351 | -0.0109
CN(CCO)CC[C@H](CSc1ccccc1)Nc1ccc(S(=O)(=O)NC(=O)c2ccc(N3CCC([C@@H](O)c4ccccc4-c4ccc(Cl)cc4)CC3)cc2)cc1S(=O)(=O)C(F)(F)F [AZD4320] + C=CCn1c(=O)c2cnc(Nc3ccc(N4CCN(C)CC4)cc3)nc2n1-c1cccc(C(C)(C)O)n1 [AZD1775] (first compound max 1 µM, partner max 1 µM) | -0.0419 | 0.0586 | 0.0297 | -0.0143 | 0.0322 | 0.0931 | 0.112 | -0.0509 | 0.0249 | 0.0014 | 0.064 | 0.0681 | 0.0339 | 0.0361 | -0.0141 | 0.0015 | -0.0201 | -0.025 | -0.0089 | -0.0028
CN(CCO)CC[C@H](CSc1ccccc1)Nc1ccc(S(=O)(=O)NC(=O)c2ccc(N3CCC([C@@H](O)c4ccccc4-c4ccc(Cl)cc4)CC3)cc2)cc1S(=O)(=O)C(F)(F)F [AZD4320] + CCN(CCO)CCCOc1ccc2c(Nc3cc(CC(=O)Nc4cccc(F)c4)[nH]n3)ncnc2c1 [AZD2811] (first compound max 1 µM, 7x7, partner max 1 µM) | -0.0022 | -0.0229 | -0.0157 | -0.0031 | -0.015 | 0.0616 | 0.0349 | -0.0174 | 0.0092 | 0.0994 | -0.0204 | 0.0503 | 0.0445 | -0.0631 | -0.143 | 0.0393 | -0.0391 | -0.0238 | -0.0366 | 0.0111
CN(CCO)CC[C@H](CSc1ccccc1)Nc1ccc(S(=O)(=O)NC(=O)c2ccc(N3CCC([C@@H](O)c4ccccc4-c4ccc(Cl)cc4)CC3)cc2)cc1S(=O)(=O)C(F)(F)F [AZD4320] + CN(C)CCCOc1ccc(-c2ccc3ncc4c(c3c2)n(C2CCOCC2)c(=O)n4C)cn1 [AZD0156] (first compound max 1 µM, 7x7, partner max 1 µM) | -0.0323 | -0.0314 | -0.0704 | -0.0007 | -0.0392 | 0.112 | 0.0275 | -0.0056 | -0.0391 | -0.0202 | 0.0257 | 0.0491 | -0.0151 | -0.0184 | -0.0439 | -0.0023 | -0.0441 | -0.0589 | -0.0545 | 0.0041
CN(CCO)CC[C@H](CSc1ccccc1)Nc1ccc(S(=O)(=O)NC(=O)c2ccc(N3CCC([C@@H](O)c4ccccc4-c4ccc(Cl)cc4)CC3)cc2)cc1S(=O)(=O)C(F)(F)F [AZD4320] + C[C@@H]1COCCN1C2=NC(=NC(=C2)C3(CC3)[S@](=N)(=O)C)C4=C5C=CNC5=NC=C4 [AZD6738] (first compound max 1 µM, 7x7, partner max 10 µM) | -0.0663 | 0.015 | -0.0362 | -0.0292 | -0.0302 | 0.0052 | -0.0085 | -0.0566 | 0.0146 | -0.0023 | -0.0057 | -0.0128 | -0.0336 | -0.047 | -0.0586 | -0.014 | 0.0073 | -0.0819 | -0.0303 | 0.0056
CN(CCO)CC[C@H](CSc1ccccc1)Nc1ccc(S(=O)(=O)NC(=O)c2ccc(N3CCC([C@@H](O)c4ccccc4-c4ccc(Cl)cc4)CC3)cc2)cc1S(=O)(=O)C(F)(F)F [AZD4320] + C[C@@H](Nc1cc(F)cc(F)c1)c1cc(C(=O)N(C)C)cc2c(=O)cc(N3CCOCC3)oc12 [AZD8186] (first compound max 1 µM, 7x7, partner max 3 µM) | 0.0488 | 0.0029 | -0.0139 | 0.0342 | -0.0066 | -0.0033 | 0.0115 | -0.0242 | 0.0273 | -0.0033 | 0.0093 | 0.0539 | 0.0237 | -0.0892 | -0.071 | 0.0019 | -0.0011 | -0.015 | -0.0561 | 0.0133
CN(CCO)CC[C@H](CSc1ccccc1)Nc1ccc(S(=O)(=O)NC(=O)c2ccc(N3CCC([C@@H](O)c4ccccc4-c4ccc(Cl)cc4)CC3)cc2)cc1S(=O)(=O)C(F)(F)F [AZD4320] + Cc1cc2ncnn2cc1Nc1ncc2c(n1)n(C1CCOCC1)c(=O)n2C [AZD7648] (first compound max 1 µM, 7x7, partner max 10 µM) | -0.0351 | -0.0494 | -0.0303 | -0.0126 | -0.0614 | -0.003 | -0.0409 | -0.0255 | 0.0364 | -0.0148 | 0.0309 | 0.036 | -0.0465 | -0.0422 | 0.0283 | 0.0088 | -0.033 | -0.0674 | -0.0389 | 0.0189
CN(CCO)CC[C@H](CSc1ccccc1)Nc1ccc(S(=O)(=O)NC(=O)c2ccc(N3CCC([C@@H](O)c4ccccc4-c4ccc(Cl)cc4)CC3)cc2)cc1S(=O)(=O)C(F)(F)F [AZD4320] + Cn1cnc2c(F)c(Nc3ccc(Br)cc3Cl)c(C(=O)NOCCO)cc21 [Selumetinib] (first compound max 1 µM, 7x7, partner max 3 µM) | 0.0815 | -0.0326 | 0.0112 | 0.0528 | 0.0044 | 0.0746 | 0.0229 | 0.0231 | -0.0185 | 0.0308 | 0.0816 | 0.0058 | -0.072 | -0.0441 | 0.0457 | 0.0029 | 0.0489 | -0.0248 | 0.0263 | 0.0188
